In US12139520B2 (priority 2020, dated 2024):
Numbered stars: 1 amine (or outer) side, 2 acyl side, 3 side chain; on linkers, the order of the positions; unused ones are H or OH. Bridge positions count the residues as written; N and C are the ends. Square brackets hold non-standard residues; d marks the D form. Side chains are listed from the residue outwards. Peptide text beside a SMILES is read from it. * marks the point of attachment. C20 diacid = O=C(O)CCCCCCCCCCCCCCCCCCC(=O)*; γGlu = O=C(O)[C@H](CCC(=O)[*:2])N[*:1]; Hyp = O=C(O)[C@@H]1C[C@@H](O)CN1; AEEA = NCCOCCOCC(=O)O

How the values were obtained:
[1] = biological target: T1, hAMY3 receptor (Homo sapiens, UniProt O60896+P30988); test: cAMP assay for in vitro receptor activation, hAMY3-R; format: cell-based; conditions: cAMP assay, hAMY3 receptor; read-out: hAMY3R EC50
T1 sequence (P30988 25-474): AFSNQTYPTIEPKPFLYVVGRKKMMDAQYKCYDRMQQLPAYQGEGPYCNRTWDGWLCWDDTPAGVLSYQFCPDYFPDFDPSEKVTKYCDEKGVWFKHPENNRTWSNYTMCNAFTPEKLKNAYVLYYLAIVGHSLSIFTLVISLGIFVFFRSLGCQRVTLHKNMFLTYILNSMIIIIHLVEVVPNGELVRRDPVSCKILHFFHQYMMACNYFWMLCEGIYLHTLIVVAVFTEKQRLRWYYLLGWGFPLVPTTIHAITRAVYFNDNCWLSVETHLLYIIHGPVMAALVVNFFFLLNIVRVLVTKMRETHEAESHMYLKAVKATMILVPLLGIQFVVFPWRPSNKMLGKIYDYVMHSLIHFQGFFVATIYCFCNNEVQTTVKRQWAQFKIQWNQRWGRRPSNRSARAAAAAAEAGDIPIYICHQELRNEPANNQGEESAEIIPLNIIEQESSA
T1 sequence (O60896 24-148 partner): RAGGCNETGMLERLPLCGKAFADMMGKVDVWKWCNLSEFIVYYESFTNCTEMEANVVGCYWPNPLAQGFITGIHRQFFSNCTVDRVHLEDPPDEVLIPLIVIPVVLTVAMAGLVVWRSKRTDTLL
In short: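 Graded compound concentrations were applied for 30 min at room temperature to stably hAMY3-expressing cells in DPBS, 0.05% casein, 0.5 mM IBMX; cAMP detected by TR-FRET.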

[2] = biological target: hAM1 receptor (Homo sapiens, UniProt O60895+Q16602); test: cAMP assay for in vitro receptor activation, hAM1-R; format: cell-based; conditions: cAMP assay, hAM1 receptor; read-out: hAM1R EC50
In short: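 A subcloned monoclonal line stably expressing hAM1 receptor is thawed and plated at 8000 cells/well. The assay buffer is DPBS with 0.05% casein and 0.5 mM IBMX, and receptor activation is followed by cAMP levels.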

[3] = Acute food intake study in lean rats; format: in vivo, rat; conditions: single SC injection, lean healthy rats; for Average cumulative food intake: up to 48 h, P < 0.001 vs vehicle
Experimental: General Protocols for Acute Food Intake Study
The effect on cumulative food intake was measured in male Sprague Dawley rats (6 weeks of age, Taconic, Denmark) following a single dose using a fully automated food intake monitoring system (HM-2; MBRose ApS, Faaborg, Denmark), allowing for advanced synchronous real-time monitoring of food intake behaviour of individual animals. The animals were housed in groups of 4 in a light-, temperature-, and humidity-controlled room (a 12/12 LD cycle, lights on at 02:00 AM; 22±2° C.; 50% relative humidity). The mice had ad libitum access to regular chow diet (Altromin 1324, Brogaarden A/S, Lynge, Denmark) and domestic quality tap water. Mice arrived at day 7, and a minimum of 5 days of habituation to the system was allowed prior to beginning of the study. During these days, the animals were handled daily to accustom them to the experimental paradigm. On the day of dosing, the animals were randomized into groups according to body weight. Animals were fasted for four hours prior to dosing. Animals were dosed SC 30 or 180 min prior to lights out, and food intake data were collected automatically for a total of 48 h post-dosing with automatic food recordings every 5 min.

hAM1 receptor, sequence (Q16602 23-461): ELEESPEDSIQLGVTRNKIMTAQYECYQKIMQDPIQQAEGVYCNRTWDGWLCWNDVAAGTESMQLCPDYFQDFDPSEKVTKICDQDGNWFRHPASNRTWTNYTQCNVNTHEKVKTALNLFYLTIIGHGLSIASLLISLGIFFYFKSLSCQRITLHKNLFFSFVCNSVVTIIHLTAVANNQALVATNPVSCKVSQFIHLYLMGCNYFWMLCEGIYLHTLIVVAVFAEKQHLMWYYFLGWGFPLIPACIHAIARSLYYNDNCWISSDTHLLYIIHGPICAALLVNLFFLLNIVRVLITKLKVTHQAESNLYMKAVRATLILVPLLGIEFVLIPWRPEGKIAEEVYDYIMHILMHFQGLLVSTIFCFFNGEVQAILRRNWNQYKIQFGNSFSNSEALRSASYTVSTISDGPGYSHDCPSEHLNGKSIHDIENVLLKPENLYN
hAM1 receptor, sequence (O60895 43-175 partner): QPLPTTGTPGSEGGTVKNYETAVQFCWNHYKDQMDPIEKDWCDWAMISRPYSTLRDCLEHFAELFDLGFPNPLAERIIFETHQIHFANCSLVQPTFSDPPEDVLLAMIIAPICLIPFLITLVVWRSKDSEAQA

Compound | EC50 [1] | EC50 [2] | cumulative food intake, % to vehicle ([3]; 10 nmol/kg) | Average cumulative food intake ([3]; 10 nmol/kg) | cumulative food intake, % to vehicle ([3]; 30 nmol/kg) | Average cumulative food intake ([3]; 30 nmol/kg)
CC[C@H](C)[C@H](NC(=O)[C@H](CCC(N)=O)NC(=O)[C@H](CCC(=O)O)NC(=O)[C@H](C)NC(=O)[C@H](CC(C)C)NC(=O)[C@H](CCCNC(=N)N)NC(=O)[C@H](CCC(N)=O)NC(=O)[C@@H](NC(=O)[C@@H](NC(=O)[C@@H]1CSSC[C@H](NC(=O)[C@@H](N)CCCCN)C(=O)N[C@@H](CC(N)=O)C(=O)N[C@@H]([C@@H](C)O)C(=O)N[C@@H](C)C(=O)N[C@@H]([C@@H](C)O)C(=O)N1)[C@@H](C)O)C(C)C)C(=O)N[C@@H](Cc1ccc(O)cc1)C(=O)N[C@@H](CCC(N)=O)C(=O)N[C@@H](Cc1ccccc1)C(=O)N[C@H](C(=O)N[C@@H](CC(=O)O)C(=O)N[C@@H](CCCCN)C(=O)N[C@@H](CC(=O)O)C(=O)N[C@@H](CCCCN)C(=O)N[C@@H](CC(=O)O)C(=O)N[C@@H](CC(N)=O)C(=O)N[C@H](C(=O)N[C@@H](C)C(=O)N1CCC[C@H]1C(=O)N1CCC[C@H]1C(=O)N[C@H](C(=O)N[C@@H](CC(N)=O)C(=O)N[C@H](C(=O)NCC(=O)N[C@@H](CO)C(=O)N[C@@H](CCCCNC(=O)COCCOCCNC(=O)COCCOCCNC(=O)CC[C@H](NC(=O)CCCCCCCCCCCCCCCCCCC(=O)O)C(=O)O)C(=O)NCC(=O)N1C[C@H](O)C[C@H]1C(N)=O)C(C)C)[C@@H](C)O)C(C)C)[C@@H](C)O [compound 6] (H-KCNTATCTVQRLAEQIYQFTDKDKDNVAPPTNVGSK([AEEA-AEEA-γGlu-C20 diacid])G[Hyp]-NH2; disulfide 2-7; N-terminus assumed) | 0.006 nM | > 5000 nM | 65.63% | 27.5 g | – | –
CC[C@H](C)[C@H](NC(=O)[C@H](CCC(N)=O)NC(=O)[C@H](CCC(=O)O)NC(=O)[C@H](C)NC(=O)[C@H](CC(C)C)NC(=O)[C@H](CCCNC(=N)N)NC(=O)[C@H](CCC(N)=O)NC(=O)[C@@H](NC(=O)[C@@H](NC(=O)[C@@H]1CSSC[C@H](NC(=O)[C@@H](N)CCCCN)C(=O)N[C@@H](CCCCNC(=O)COCCOCCNC(=O)COCCOCCNC(=O)CC[C@H](NC(=O)CCCCCCCCCCCCCCCCCCC(=O)O)C(=O)O)C(=O)N[C@@H]([C@@H](C)O)C(=O)N[C@@H](C)C(=O)N[C@@H]([C@@H](C)O)C(=O)N1)[C@@H](C)O)C(C)C)C(=O)N[C@@H](Cc1ccc(O)cc1)C(=O)N[C@@H](CCC(N)=O)C(=O)N[C@@H](Cc1ccccc1)C(=O)N[C@H](C(=O)N[C@@H](CC(=O)O)C(=O)N[C@@H](CCCCN)C(=O)N[C@@H](CC(=O)O)C(=O)N[C@@H](CCCCN)C(=O)N[C@@H](CC(=O)O)C(=O)N[C@@H](CC(N)=O)C(=O)N[C@H](C(=O)N[C@@H](C)C(=O)N1CCC[C@H]1C(=O)N1CCC[C@H]1C(=O)N[C@H](C(=O)N[C@@H](CC(N)=O)C(=O)N[C@H](C(=O)NCC(=O)N[C@@H](CO)C(=O)N[C@@H](CC(N)=O)C(=O)NCC(=O)N1C[C@H](O)C[C@H]1C(N)=O)C(C)C)[C@@H](C)O)C(C)C)[C@@H](C)O [compound 36] (H-KCK([AEEA-AEEA-γGlu-C20 diacid])TATCTVQRLAEQIYQFTDKDKDNVAPPTNVGSNG[Hyp]-NH2; disulfide 2-7; N-terminus assumed) | 0.009 nM | > 5000 nM | 55.61% | 23.3 g | – | –
CC[C@H](C)[C@H](NC(=O)[C@H](CCC(N)=O)NC(=O)[C@H](Cc1c[nH]cn1)NC(=O)[C@H](C)NC(=O)[C@H](CC(C)C)NC(=O)[C@H](CCCNC(=N)N)NC(=O)[C@H](CCC(N)=O)NC(=O)[C@@H](NC(=O)[C@@H](NC(=O)[C@@H]1CSSC[C@H](NC(=O)[C@H](CCCCN)NC(=O)CC[C@H](NC(=O)CCCCCCCCCCCCCCCCCCC(=O)O)C(=O)O)C(=O)N[C@@H](CC(N)=O)C(=O)N[C@@H]([C@@H](C)O)C(=O)N[C@@H](C)C(=O)N[C@@H]([C@@H](C)O)C(=O)N1)[C@@H](C)O)C(C)C)C(=O)N[C@@H](Cc1ccc(O)cc1)C(=O)N[C@@H](CCC(N)=O)C(=O)N[C@@H](Cc1ccccc1)C(=O)N[C@H](C(=O)N[C@@H](CC(=O)O)C(=O)N[C@@H](CCCCN)C(=O)N[C@@H](CC(=O)O)C(=O)N[C@@H](CCCCN)C(=O)N[C@@H](CC(=O)O)C(=O)N[C@@H](CC(N)=O)C(=O)N[C@H](C(=O)N[C@@H](C)C(=O)N1CCC[C@H]1C(=O)N1CCC[C@H]1C(=O)N[C@H](C(=O)N[C@@H](CCCCN)C(=O)N[C@H](C(=O)NCC(=O)N[C@@H](CO)C(=O)N[C@@H](CC(N)=O)C(=O)NCC(=O)N1C[C@H](O)C[C@H]1C(N)=O)C(C)C)[C@@H](C)O)C(C)C)[C@@H](C)O [compound 60] ({C20 diacid-γGlu}-KCNTATCTVQRLAHQIYQFTDKDKDNVAPPTKVGSNG[Hyp]-NH2; disulfide 2-7) | 0.012 nM | > 5000 nM | 69.59% | 30.9 g | 45.72% | 20.3 g
CC[C@H](C)[C@H](NC(=O)[C@H](CCC(N)=O)NC(=O)[C@H](Cc1c[nH]cn1)NC(=O)[C@H](C)NC(=O)[C@H](CC(C)C)NC(=O)[C@H](CCCNC(=N)N)NC(=O)[C@H](CCC(N)=O)NC(=O)[C@@H](NC(=O)[C@@H](NC(=O)[C@@H]1CSSC[C@H](NC(=O)[C@H](CCCCN)NC(=O)CC[C@H](NC(=O)CCCCCCCCCCCCCCCCCCC(=O)O)C(=O)O)C(=O)N[C@@H](CC(N)=O)C(=O)N[C@@H]([C@@H](C)O)C(=O)N[C@@H](C)C(=O)N[C@@H]([C@@H](C)O)C(=O)N1)[C@@H](C)O)C(C)C)C(=O)N[C@H](C(=O)N[C@@H](CCC(N)=O)C(=O)N[C@@H](Cc1ccccc1)C(=O)N[C@H](C(=O)N[C@@H](CC(=O)O)C(=O)N[C@@H](CCCCN)C(=O)N[C@@H](CC(=O)O)C(=O)N[C@@H](CCCCN)C(=O)N[C@@H](CC(=O)O)C(=O)N[C@@H](CC(N)=O)C(=O)N[C@H](C(=O)N[C@@H](C)C(=O)N1CCC[C@H]1C(=O)N1CCC[C@H]1C(=O)N[C@H](C(=O)N[C@@H](CC(N)=O)C(=O)N[C@H](C(=O)NCC(=O)N[C@@H](CO)C(=O)N[C@@H](CC(N)=O)C(=O)NCC(=O)N1C[C@H](O)C[C@H]1C(N)=O)C(C)C)[C@@H](C)O)C(C)C)[C@@H](C)O)C(C)C [compound 85] ({C20 diacid-γGlu}-KCNTATCTVQRLAHQIVQFTDKDKDNVAPPTNVGSNG[Hyp]-NH2; disulfide 2-7) | 0.015 nM | > 5000 nM | 45.70% | 18.6 g | – | –
CC[C@H](C)[C@H](NC(=O)[C@H](C)NC(=O)CNC(=O)[C@H](Cc1ccccc1)NC(=O)[C@H](CC(N)=O)NC(=O)[C@H](CC(N)=O)NC(=O)[C@H](CO)NC(=O)[C@H](CO)NC(=O)[C@H](Cc1c[nH]cn1)NC(=O)[C@@H](NC(=O)[C@H](CC(C)C)NC(=O)[C@H](Cc1ccccc1)NC(=O)[C@H](CC(N)=O)NC(=O)[C@H](C)NC(=O)[C@H](CC(C)C)NC(=O)[C@H](CCCNC(=N)N)NC(=O)[C@H](CCC(N)=O)NC(=O)[C@@H](NC(=O)[C@H](C)NC(=O)[C@@H]1CSSC[C@H](NC(=O)[C@@H](N)CCCCN)C(=O)N[C@@H](CC(N)=O)C(=O)N[C@@H]([C@@H](C)O)C(=O)N[C@@H](C)C(=O)N[C@@H]([C@@H](C)O)C(=O)N1)[C@@H](C)O)C(C)C)C(=O)N[C@@H](C)C(=O)N1CCC[C@H]1C(=O)N[C@@H](CO)C(=O)N[C@H](C(=O)N[C@@H](CCCCN)C(=O)N[C@H](C(=O)NCC(=O)N[C@@H](CO)C(=O)N[C@@H](CC(N)=O)C(=O)NCC(=O)N[C@@H](Cc1ccc(O)cc1)C(N)=O)C(C)C)[C@@H](C)O [compound 93] (H-KCNTATCATQRLANFLVHSSNNFGAIAPSTKVGSNGY-NH2; disulfide 2-7; N-terminus assumed) | 0.016 nM | > 5000 nM | 46.93% | 19.1 g | – | –
